# Experimental data reported in patent US6573063B2, “Methods and systems for assessing biological materials using optical and spectroscopic detection techniques” (Cytoscan Sciences, LLC, priority 1995, dated 2003).
# What was measured:
# [1] = system: hippocampal slices; test: Spontaneous interictal-like bursts in hippocampal slices after additions to the bathing medium; format: cell-based, rat; settings: 4 slices
# Procedure: (§1) Sprague-Dawley rats (male and female; 25 to 35 days old) were prepared as described in Aghajanian, A. K. and Rasmussen, K., Synapse 31:331, 1989; and Buckmaster, P. S., Strowbridge, B. W., Schwartzdroin, P. A., J. Neurophysiol. 70:1281, 1993. In most hippocampal slice experiments, simultaneous extracellular field electrode recordings were obtained from CA1 and CA3 areas. For stimulation-evoked afterdischarge (13 slices, 8 animals), the concentration of Mg^2+ in the bathing medium was reduced to 0.9 mM. A bipolar tungsten stimulating electrode was placed on the Schaffer collaterals to evoke synaptically driven field responses in CA1; stimuli consisted to 100 to 300-μs-duration pulses at an intensity of four times population-spike threshold. After discharges were evoked by a 2-s train of such stimuli delivered at 60 Hz. […] In all treatments, perfusion with furosemide-containing medium was begun after a consistent level of bursting had been established.
# [2] = system: hippocampal tissue slice (CA1, Schaffer collateral stimulation); test: Stimulation-evoked afterdischarge in acute hippocampal slice: extracellular field recording and imaging of intrinsic optical signals; format: cell-based, rat
# Procedure: as §1
# For imaging of intrinsic optical signals, the tissue was illuminated with a beam of white light (tungsten filament light and lens system; Dedotec USA, Lodi, N.J.) directed through the microscope condenser. The light was controlled and regulated (power supply: Lambda Electronics, Melville, N.Y.) to minimize fluctuations and filtered (695 nm long-pass) so that the slice was transilluminated with long wavelengths (red). Image frames were acquired with a charge-coupled device camera (Dage-MTI) at 30 Hz and were digitized at 8 bits with a spatial resolution of 512 by 480 pixels by means of an Imaging Technology Series 151 imaging system; gains and offsets of the camera-control box and the analog-to-digital board were adjusted to optimize the sensitivity of the system. Imaging hardware was controlled by a 486-PC-compatible computer running software written by D. Hochman and developed with commercially available software tools (Microsoft's C/C++ Compiler and Imaging Technology's ITEX library). To increase signal-to-noise ratio, an averaged image was composed from 16 individual image-frames, integrated over 0.5 s and averaged together. An experimental series typically involved the continuous acquisition of a series of averaged images over a several minute time period; at least 10 of these averaged images were acquired as control images before stimulation. Pseudocolored images were calculated by subtracting the first control image from subsequently acquired images and assigned a color lookup table to the pixel values. For these images, usually a linear low-pass filter was used to remove high-frequency noise and a linear-histogram stretch was used to map the pixel values over the dynamic range of the system. All operations on these images were linear so that quantitative information was preserved.
# [3] = system: brain tumor and normal tissue; test: Optical imaging of brain tumor through the intact cranium after intravenous dye injection
# [4] = 20 minutes of perfusion with medium containing 2.5 mM furosemide
# [5] = following treatment with furosemide (FIG. 3E)
smiles,measurement,setting,value
Nc1ccncc1 [4-AP],"spontaneous interictal-like bursts, average","[1]; 200 to 300 μM 4-AP in bathing medium, 2 animals",33 bursts/min
CN1CCc2cc3c(cc2[C@H]1[C@@H]1OC(=O)c2c1ccc1c2OCO1)OCO3 [bicuculine],"spontaneous interictal-like bursts, average","[1]; 50 to 100 bicuculine in bathing medium, 3 animals",14 bursts/min
NS(=O)(=O)c1cc(C(=O)O)c(NCc2ccco2)cc1Cl [furosemide],field response to the test pulse,[2]; [4],hyperexcitable field response (multiple population spikes)
same,stimulation-evoked optical changes,[2]; [4],blocked
same,electrical afterdischarge activity,"[2]; 20 minutes of perfusion with medium containing 2.5 mM furosemide, 2 s stimulation at 60 Hz",blocked
same,response pattern after washout,[2]; following 45 minutes of perfusion with normal bathing medium,restoration of the initial response pattern
same,epileptiform activity during electrical stimulation,[2]; [5],blocks
same,intrinsic optical signal during electrical stimulation,[2]; [5],blocks
CC1(C)C(/C=C/C=C/C=C/C=C2\N(CCCCS(=O)(=O)O)c3ccc4ccccc4c3C2(C)C)=[N+](CCCCS(=O)(=O)[O-])c2ccc3ccccc3c21 [indocyanine green],dye distribution in normal and tumor tissue,[3]; five seconds after dye injection,profuse through both normal and tumor tissue
same,dye in normal tissue,[3]; one minute after dye injection,cleared the dye
same,dye in tumor region,[3]; one minute after dye injection,still retained
